# Measurements reported in US5496826A, “Pharmaceutical methods of using heterocyclic derivatives of N-phenylamides” (Bristol-Myers Squibb Company, priority 1994, dated 1996).
# Experiments:
# [1] = tested on: tonic seizure produced by 50 milliamps current through corneal electrodes (hind limb tonic extension); experiment: Maximum Electroshock Test (MES); assay type: in vivo, female C57Bl/6 mice; settings: Mus musculus, ip, 0.5 h; mice, i.p. 30 min before MES; abolition of hind limb tonic extension; read-out: MES Results: median effective dose (ED50)
# Experimental: (§1) The anticonvulsive properties of the compounds of the invention were evaluated using two standard animal models of epilepsy: the maximal electroshock test (MES) and the pentylenetetrazol (PTZ)-induced seizure procedure. Melatonergic action is indicated by binding studies done in hamster hypothalamus tissue.
# 2. Maximum Electroshock Test
# The MES procedure used is based upon the tests disclosed by Swinyard and et al in J. Pharmacol, Expt. Ther., (1952) 106, 319 and L. A. Woodbury et al in Arch. Int. Pharmocodyn, (1952), 92-97. These tests are also described in U.S. Pat. Nos. 5,242,942 and 5,240,937, respectively.
# In the MES procedure, a tonic seizure was produced in female C57Bl/6 mice (17-26 g) by the delivery of a 50 milliamps current through corneal electrodes for 0.2 sec. Before testing, the animals were allowed food and water ad libitum. Compounds were injected i.p. 30 min before the MES. Reference compounds (phenytoin, carbamazepine, phenobarbital, and valproic acid) were tested at the peak of activity and at the dose range reported in the literature. Seven mice were used per group. In this test anticonvulsive activity was indicated by the abolition of the hind limb tonic extension. The median effective dose (ED50) was obtained for each compound and compared to ED50 's of reference compound(s).
# [2] = tested on: pentylenetetrazol (PTZ)-induced seizures; experiment: Pentylenetetrazole (PTZ)-Induced Seizure Test; assay type: in vivo, female C57BI/6 mice; settings: 50 mg/kg i.p., mice, 30 min before 75 mg/kg PTZ i.p.
# Experimental: as §1
# 1. Pentylenetetrazole--Induced Seizure Test
# The PTZ technique employed was similar to that disclosed in P.C.T. publication WO 93/0572 (PCT/US92/07675), published on Apr. 1, 1993.
# In the PTZ procedure, female C57BI/6 mice (17-26 g) were injected j.p. (vol=0.1 ml/20 g) with test compound or vehicle 30 min before i.p. administration of 75 mg/kg pentylenetetrazol. Multiple doses of reference compounds (ethosuximide, trimethadione, and pentobarbital) were tested at the peak of activity and at the dose range reported in the literature. Ten mice were used per group. After injection, mice were placed in individual observation cages and monitored for one hour. During the first thirty minutes following PTZ injection, seizure activity was recorded by measure: the latency to the onset of pre-convulsive activity (Pre) the latency to the onset of the first clonic seizure longer than five seconds (First) the latency to the onset of the first intense-generalized clonic/tonic seizure (IGS) and the length of survival (Surv Time). During the second thirty-minute period, only time of death was recorded.
# Those compounds that produced a significant delay in the onset of seizure activity or delayed (or abolished) mortality when compared to that produced by vehicle (reference) were classified as anticonvulsants. Significant differences between animals treated with reference or test compounds were determined using the Student's t-test.
SMILES,ED50 [1] [mg/kg],First: latency to first seizure [2],Pre: latency to first twitch [2],Surv Time: duration of survival [2],Surv: survival at one hour postPTZ [2],"IGS: onset of intense, generalized seizures [2]"
"CCC(=O)Nc1ccccc1-c1nc2ccccc2[nH]1 [Example 1, N-[2-(1H-benzimidazol-2-yl)phenyl] propanamide]",< 25,–,–,–,–,–
"COCC(=O)Nc1ccccc1-c1nc2ccccc2[nH]1 [Example 2, N-[2-(benzimidazol-2-yl)phenyl] methoxyacetamide]",< 75,–,–,–,–,–
"CNC(=O)Nc1ccccc1-c1nc2ccccc2[nH]1 [Example 10, N-[2-(benzimidazol-2-yl)phenyl]-N'-methyl urea]",< 75,++ (>200% controls),+ (>100% controls),++ (>200% controls),++++ (>400% controls),–
"CC(=O)Nc1ccccc1-c1nc2ccccc2o1 [Example 11, N-[2-(benzoxazol-2-yl)phenyl] acetamide]",< 75,–,–,–,–,–
"CNC(=O)Nc1ccccc1-c1nc2ccccc2o1 [Example 12, N-[2-(benzoxazol-2-yl)phenyl]-N'-methyl urea]",< 100,+++ (>300% controls),+ (>100% controls),++ (>200% controls),++ (>200% controls),+ (>100% controls)
"CC(=O)Nc1ccccc1-c1nc2ccccc2s1 [Example 13, N-[2-(benzthiazol-2-yl)phenyl] acetamide]",< 25,–,–,–,–,–
"COc1ccc2[nH]c(-c3ccccc3NC(C)=O)nc2c1 [Example 15, N-[2-(5-methoxy-1H-benzimidazol-2-yl)phenyl] acetamide]",–,+ (>100% controls),+ (>100% controls),++ (>200% controls),–,–
